What all share (assay): HotSpot [3H]SAM filter-binding methyltransferase assay
Common to all, as to type: biochemical

The target in one experiment is T1, NSD3 (Homo sapiens, UniProt Q9BZ95).
T1 sequence (Q9BZ95 1021-1322): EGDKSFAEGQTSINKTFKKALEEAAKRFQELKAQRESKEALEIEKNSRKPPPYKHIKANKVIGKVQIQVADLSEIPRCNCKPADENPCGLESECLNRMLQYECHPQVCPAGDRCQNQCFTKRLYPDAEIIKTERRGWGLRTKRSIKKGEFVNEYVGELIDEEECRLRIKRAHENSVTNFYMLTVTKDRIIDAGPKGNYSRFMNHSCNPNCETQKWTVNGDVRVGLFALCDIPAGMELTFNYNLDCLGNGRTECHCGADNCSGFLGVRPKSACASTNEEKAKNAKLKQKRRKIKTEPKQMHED
The arrangement: residues 1021-1322, GST fusion, E. coli. The settings on record: nucleosomes, […] SAM, Bicine pH […] DTT, […] °C, single experiment.

The target of another experiment is T2, NSD1 (Homo sapiens, UniProt Q96L73).
T2 construct: residues 1538-2696, N-terminal His tag, insect cell/baculovirus
T2 sequence (Q96L73 1538-2696): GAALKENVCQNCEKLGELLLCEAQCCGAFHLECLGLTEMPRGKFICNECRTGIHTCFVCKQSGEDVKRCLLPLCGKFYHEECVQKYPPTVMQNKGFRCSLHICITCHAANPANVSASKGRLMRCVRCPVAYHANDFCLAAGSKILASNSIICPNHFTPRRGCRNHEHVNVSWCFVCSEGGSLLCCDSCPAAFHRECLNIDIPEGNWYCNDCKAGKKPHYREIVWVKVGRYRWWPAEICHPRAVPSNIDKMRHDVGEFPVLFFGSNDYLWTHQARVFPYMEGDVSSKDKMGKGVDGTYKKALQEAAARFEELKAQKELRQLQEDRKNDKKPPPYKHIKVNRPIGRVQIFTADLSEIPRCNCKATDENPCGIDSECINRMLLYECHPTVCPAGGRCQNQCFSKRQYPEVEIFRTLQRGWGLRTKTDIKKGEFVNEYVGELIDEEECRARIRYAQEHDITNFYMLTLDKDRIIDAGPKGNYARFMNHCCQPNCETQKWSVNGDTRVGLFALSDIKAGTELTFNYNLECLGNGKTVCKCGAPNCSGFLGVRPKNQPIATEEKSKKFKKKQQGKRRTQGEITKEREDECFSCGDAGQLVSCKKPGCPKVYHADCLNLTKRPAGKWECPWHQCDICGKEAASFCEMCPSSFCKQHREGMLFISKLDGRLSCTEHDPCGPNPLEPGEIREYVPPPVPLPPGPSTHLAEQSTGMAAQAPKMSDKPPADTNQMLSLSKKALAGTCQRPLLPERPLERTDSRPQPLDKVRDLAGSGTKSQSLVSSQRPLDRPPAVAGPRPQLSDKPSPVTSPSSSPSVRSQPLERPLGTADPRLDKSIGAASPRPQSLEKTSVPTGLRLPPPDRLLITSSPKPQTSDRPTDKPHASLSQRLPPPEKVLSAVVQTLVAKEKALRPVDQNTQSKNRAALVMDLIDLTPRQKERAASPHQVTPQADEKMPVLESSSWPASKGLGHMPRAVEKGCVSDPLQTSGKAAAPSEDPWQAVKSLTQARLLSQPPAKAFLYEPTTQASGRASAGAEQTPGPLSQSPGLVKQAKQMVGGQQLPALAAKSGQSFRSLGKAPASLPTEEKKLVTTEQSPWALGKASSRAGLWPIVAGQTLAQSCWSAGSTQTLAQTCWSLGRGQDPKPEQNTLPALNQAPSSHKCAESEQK
Conditions: nucleosomes, […] SAM, pH […] MgCl2, […] DTT, […] °C, single experiment.

The target in another experiment is T3, NSD2 (Homo sapiens, UniProt O96028, T1150A).
T3 construct: full length (residues 2-1365), N-terminal His tag, insect cell/baculovirus
T3 sequence (O96028 2-1365 T1150A): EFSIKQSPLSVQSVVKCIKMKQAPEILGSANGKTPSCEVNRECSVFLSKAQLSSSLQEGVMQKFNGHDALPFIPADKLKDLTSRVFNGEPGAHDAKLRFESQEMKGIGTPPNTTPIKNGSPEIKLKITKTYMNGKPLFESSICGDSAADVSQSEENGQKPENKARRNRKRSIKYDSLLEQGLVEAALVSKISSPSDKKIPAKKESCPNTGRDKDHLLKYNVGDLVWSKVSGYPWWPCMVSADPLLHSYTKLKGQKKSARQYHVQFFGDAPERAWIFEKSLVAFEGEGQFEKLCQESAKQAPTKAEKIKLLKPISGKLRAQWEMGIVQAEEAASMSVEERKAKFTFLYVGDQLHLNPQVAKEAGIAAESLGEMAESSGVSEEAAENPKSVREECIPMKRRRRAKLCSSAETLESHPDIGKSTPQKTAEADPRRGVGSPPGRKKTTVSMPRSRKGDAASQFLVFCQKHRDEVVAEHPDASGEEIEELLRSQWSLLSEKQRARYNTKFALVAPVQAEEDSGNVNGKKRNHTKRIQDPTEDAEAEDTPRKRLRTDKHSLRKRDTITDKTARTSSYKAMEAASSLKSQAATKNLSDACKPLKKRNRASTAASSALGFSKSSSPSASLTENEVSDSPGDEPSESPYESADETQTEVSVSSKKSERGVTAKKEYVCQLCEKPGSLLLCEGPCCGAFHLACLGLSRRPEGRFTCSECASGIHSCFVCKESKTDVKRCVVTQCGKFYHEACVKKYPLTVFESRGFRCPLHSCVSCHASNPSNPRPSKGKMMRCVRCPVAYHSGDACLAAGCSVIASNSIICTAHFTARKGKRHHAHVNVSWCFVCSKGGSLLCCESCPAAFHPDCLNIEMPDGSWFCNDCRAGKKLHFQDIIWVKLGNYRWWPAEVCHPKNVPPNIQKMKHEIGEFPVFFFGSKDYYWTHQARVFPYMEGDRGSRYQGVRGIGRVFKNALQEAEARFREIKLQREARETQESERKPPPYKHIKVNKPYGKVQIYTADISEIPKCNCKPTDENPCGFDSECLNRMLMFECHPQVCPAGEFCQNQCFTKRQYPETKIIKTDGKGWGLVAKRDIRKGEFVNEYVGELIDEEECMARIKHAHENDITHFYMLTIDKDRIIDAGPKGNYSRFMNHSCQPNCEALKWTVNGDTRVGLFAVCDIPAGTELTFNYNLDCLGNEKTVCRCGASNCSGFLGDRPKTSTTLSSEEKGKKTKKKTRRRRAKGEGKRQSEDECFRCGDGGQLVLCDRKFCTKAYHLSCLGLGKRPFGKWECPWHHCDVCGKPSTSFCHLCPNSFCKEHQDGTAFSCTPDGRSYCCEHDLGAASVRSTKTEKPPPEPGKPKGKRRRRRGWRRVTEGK

The mark [1] stands for this setting: nucleosomes, […] SAM, pH […] MgCl2, […] DTT, […] °C, single experiment.

SMILES strings stand for the structures. Where two headings read alike, the source gives them in different places.

By IC50 is commonly meant the point on the concentration scale where inhibition reaches its midpoint. Read a high IC50 as lower potency.

`CC1(C)CCC(CN2CCN(c3ccc(C(=O)NS(=O)(=O)c4ccc(NCC5CCOCC5)c([N+](=O)[O-])c4)c(Oc4cnc5[nH]ccc5c4)c3)CC2)=C(c2ccc(Cl)cc2)C1` [ABT-199]: the figures for the IC50 on NSD3, on NSD1 and at NSD2 were 1.3 µM, 2.4 µM and 2.3 µM, respectively.
Take `O=C1C(Cl)=C(NCCN2CCOCC2)C(=O)c2ncccc21` [DA3003-1]: the IC50 on NSD3 amounted to 0.26 µM; on NSD1, 0.11 µM; on NSD2 (setting [1]) it was 0.17 µM.
As to `COc1cccc(-n2nc(C(=O)O)cc2-c2ccc(C3CCCCC3)c(Cl)c2)c1` [TC LPA5 4], the IC50 was 2.3 µM at NSD3, 12 µM at NSD1 and 8 µM on NSD2 (setting [1]).

(Values after paper doi:10.1101/208439v1 (biorxiv, 2017).)
